Data on two molecules can be found in patent US8138191B2, “Inhibitor compounds and cancer treatment methods” (Critical Outcome Technologies Inc., priority 2007, dated 2012).

For one data set, the system named is HCT-116. Nature of the data set: CellTiter-Blue growth inhibition, single agents and combinations, HCT-116. In kind it is cell-based. The settings on record: Homo sapiens, read-out: Mean IC50, single agent. On the procedure:
(§1) The stock concentration was further diluted to 1 mM and added to a drug plate. […] Following dilution, 2 μl of test agent was transferred to the corresponding wells of a cell-containing 96-well plate with 198 μl of growth media. Tarceva® (erlotinib) was supplied by LC Labs (Woburn, Mass.).
Cells were grown to 70% confluency, trypsinized, counted, and seeded in 96-well flat-bottom plates at a final concentration of 2.5×10^3−5×10^3 cells/well (Day 0). […] Viable cell numbers were quantified by the CellTiter-Blue® cell viability assay, which measures the conversion of the indicator dye (resazurin) to resorufin, an indicator of cell viability. Experiments were repeated at least twice with the same concentrations to determine growth inhibitory activity.
(§2) The CI, a numerical value calculated as described in equation A, also provides a quantitative measure of the extent of drug interaction. A CI of less than, equal to, and more than 1 indicates synergy, additivity, and antagonism, respectively. CI=(CAx/ICx,A)+(CB,x/ICx,B) Equation A: Where CA,x and CB,x, are the concentrations of drug A and drug B used in combination to achieve x % drug effect. ICx,A and ICx,B are the concentrations for single agents to achieve the same effect.

For a further data set, the system named is H292. Nature of the data set: CellTiter-Blue growth inhibition, single agents and combinations, H292. It counts as cell-based. The following applies: Homo sapiens, read-out: Mean IC50, single agent. On the procedure: as §1
Viable cell numbers were quantified by the CellTiter-Blue® cell viability assay, which measures the conversion of the indicator dye (resazurin) to resorufin, an indicator of cell viability. Experiments were repeated at least twice with the same concentrations to determine growth inhibitory activity.
as §2
Background: Resazurin is reduced to fluorescent resorufin, in cell work by metabolically active cells.

Data set [1] concerns A2780 human ovarian tumor xenograft. Kind of data set: A2780 human ovarian tumor xenograft model. The settings on record: for Day 17 CS (Complete Tumor Shrinkage): N 10. In general terms: Xenograft models place foreign cells or tissue in a host animal.
For data set [2], the system named is SHP-77 human SCLC cell line tumor xenografts. Nature of the data set: Nude mouse model of human SCLC, SHP-77 xenografts. The following applies: IP on alternate days from Day 3, 31 days. In kind it is in vivo. On the procedure: The nude mouse model of human SCLC was used to evaluate the in vivo efficacy of compounds of the present invention in comparison with several known chemotherapeutic agents. Nude mice were obtained form the National Cancer Institute and the SHP-77 human SCLC cell line was chosen for metastatic tumor xenografts. The control group consisted of 10 animals, each of which were administered bilateral thigh injections of a prescribed volume of tumor cells. There were 6 treatment groups, each containing 5 animals: COTI-2, COTI-4, COTI-219, Taxotere® (docetaxel), Cisplatin® (cis-diamminedichloroplatinum) and Tarceva® (erlotinib) The therapeutic agent was administered by intraperitoneal (IP) injection on alternate days beginning on Day 3 post tumor cell injection. Each animal in a treatment group was administered bilateral thigh injections with the same prescribed volume of tumor cells as the control animals. Treatment continued for 31 days, following which the animals were euthanized and tissues were collected for subsequent analysis.

The subject of another data set is DMS114. Nature of the data set: in vitro IC50 against cancer cell lines, DMS114. The settings on record: Homo sapiens, DMS-114, 72 h; DMS114, SCLC, 3 days. In kind it is cell-based. As for the experimental part:
Briefly, cells were plated in plastic tissue culture plates and grown under standard conditions for each cell line, in carbon dioxide/oxygen atmosphere in plastic tissue culture plates, in the presence of COTI-2 or COTI-219 compounds at 35° C. for 3 days. Control cultures were treated with vehicle minus compound. Cells were counted after 3 days in culture and at a cell density of no more than 80%. The following cell lines, obtained from the National Cancer Institute, were tested: human SCLC cell lines DMS153, DMS114, SHP77; human NSCLC cell lines H226, A460, A560; human breast cancer cell lines T47D, MCF7; human colon cancer cell line HT29; and, human Leukemia cell lines K562, HL60.

The nature of data set [3]: Half-life and liver clearance rate by human liver microsomes (HLM) at 0.5 mg/mL. The settings on record: liver microsomes. In kind it is in vitro ADME. As for the experimental part:
Sampling was conducted at 1, 20, 40, 60, 120,180 and 240 minutes and the remaining concentration of each compound was evaluated. A half life (T1/2) was calculated at each concentration, along with the rate of clearance by the liver (CL). The CL values compare favorably with published values for other marketed therapeutic agents under identical conditions. The half life of compounds according to the invention is therefore likely to be long enough to permit convenient dosing, while not being so long as to lead to accumulation in patients with potential long term toxicity effects.
The incubation mixture (500 μl) consisted of 100 μl of COTI-2, 150 μl of liver microsomal fractions (1.67 mg/ml rat/human) 35.5 μl of 100 mM phosphate buffer and 214.5 μl co-factor (NADPH, UDPGA, and MgCl2). The COTI-2 compound mixture and co-factor were pre-warmed at 37° C. for 5 min, with shaking at 150 rpm. The reaction was started by adding co-factor to the test compound mixture. The final concentration of the incubation mixture was as follows:
Blank incubation was performed with the co-factors. The sampling time points included 0 and 240 min for the blank sample, and 0, 20, 40, 60, 120, 180, and 240 min for COTI-2. At each time point 50 μl of sample was added to 150 μl of methanol to stop the reaction. The sample plates were centrifuged at 4200 rpm for 15 min and the supernatant was injected into LC-MS/MS for analysis. The percent compound remaining, rate of elimination (Kel), half-life (T1/2), and intrinsic clearance (CL) using standard calculations.
(In general: Liver microsomes are a subcellular fraction often used to study metabolism.)

The test system of the next data set is SHP77. Kind of data set: Resistance testing over 5 generations, SHP77. In kind it is cell-based, human. The settings on record: SHP77, 5 generations. As for the experimental part: In order to evaluate the induction of resistance in vitro, compounds according to the invention were tested in head to head comparisons against conventional therapeutic agents Cisplatin® and Taxotere®. The compound designated COTI-4 (which is the subject of Applicant's co-pending U.S. provisional patent application entitled “Composition and Method for Treatment” filed Dec. 26, 2007) was also tested. The structure for COTI-4 is:
IC50 values were obtained using methods known to persons skilled in the art with two different human SCLC cell lines (DMS153 and SHP77) obtained from the National Cancer Institute. […] The procedure was repeated for a total of 5 generations. Emerging resistance was identified by increasing IC50 values in successive generations.

The mark [4] stands for this setting: 10 μmol, read-out: In vitro T½ (converted).
Setting [5] is: 100 μmol, read-out: In vitro T½ (converted).
[6] abbreviates: average over 1, 10 and 100 μM, read-out: average half life (converted).
[7] abbreviates: value before brackets, from 3 in vitro experiments, read-out: In vitro T½.

Read-outs that look alike come from different tables or passages of the source.

`S=C(N/N=C1/CCCc2cccnc21)N1CCN(c2ccccn2)CC1` [COTI-2]: the IC50 (usually the concentration that inhibits the measured activity by half) with HCT-116 (HCT-116, 72 h) worked out at 3.6 nM; in the data set on H292 (NCI-H292, 72 h), 3.9 nM; in the data set on DMS114, 51 nM. In addition, the “Day 17 Mean tumor weight” value in data set [1] (COTI-2 12.5 mg/kg IV) was 1,699.2 ± 241.4 mg; in data set [1] (COTI-2 50.0 mg/kg IV), 1,622.8 ± 403.0 mg. Besides, the “Day 17 TGI” value is 22.04% in data set [1] (COTI-2 12.5 mg/kg IV) and 25.76% in data set [1] (COTI-2 50.0 mg/kg IV). The “Maximum weight loss (%) (Day #)” value was 10.35% (Day 11) in data set [1] (COTI-2 12.5 mg/kg IV, Day 11) and 8.65% (Day 8) in data set [1] (COTI-2 50.0 mg/kg IV, Day 8). Further, the “Day 17 CS (Complete Tumor Shrinkage)” value in data set [1] (COTI-2 12.5 mg/kg IV) and in data set [1] (COTI-2 50.0 mg/kg IV) was 0 in each case. For the same molecule, in data set [2], the “average number of tumors per injection site” value is listed as 0.28. Moreover, the mean tumor volume in data set [2] amounted to 9.9 mm^3. Besides, the microsomal CLint – broadly, the capacity of the preparation to metabolise the compound, expressed as a volume cleared per time – at 1 µM in data set [3] (1 μM) came to 12 µL/min/mg. Besides, the half-life at 1 µM in data set [3] (1 μM, read-out: T1/2) came to 1.7 h; in data set [3] (1 μmol, read-out: In vitro T½) it was 1.7 h. The same molecule came in with a microsomal CLint at 10 µM in data set [3] (10 μM) of 4 µL/min/mg. Besides, the half-life at 10 µM in data set [3] (10 μM, read-out: T1/2) was 4.76 h; in data set [3] (setting [4]), 4.8 h. For the same molecule, the microsomal CLint at 100 µM in data set [3] (100 μM) was determined as 2 µL/min/mg. Further, the half-life at 100 µM in data set [3] (100 μM, read-out: T1/2) is 11.4 h; in data set [3] (setting [5]), 11.4 h. Also, the results for the half-life in data set [3] (setting [6]) and in data set [3] (setting [7]) were 6 h and approximately 6 h, respectively. The “emerging resistance: ratio of IC50 to IC50 of parental generation” value in the data set on SHP77 was “less than 1”.

As for `CN1CCN(C(=S)NN=C2c3ncccc3-c3cccnc32)CC1` [COTI-219], the concentration for half-maximal inhibition (IC50) came out at 8.7 nM in the data set on HCT-116 (HCT-116, Colon, KRAS - MUT, 72 h); 20 nM in the data set on H292 (NCI-H292, H292, NSCLC, EGFR - WT, 72 h); 267 nM in the data set on DMS114. The “average number of tumors per injection site” value in data set [2] came to 0.38. Besides, the mean tumor volume in data set [2] is listed as 53+/−28 mm^3. This molecule registered a microsomal CLint at 1 µM in data set [3] (1 μM) of 4.2 µL/min/mg. Moreover, the half-life at 1 µM in data set [3] (1 μM, read-out: T1/2) was determined as 5.02 h; in data set [3] (1 μmol, read-out: In vitro T½), 5 h. The molecule also gave a microsomal CLint at 10 µM in data set [3] (10 μM) of 3 µL/min/mg. Further, the half-life at 10 µM in data set [3] (10 μM, read-out: T1/2) is 7.01 h; in data set [3] (setting [4]), 7 h. The molecule further had a microsomal CLint at 100 µM in data set [3] (100 μM) of 2.5 µL/min/mg. The half-life at 100 µM in data set [3] (100 μM, read-out: T1/2) was 8.47 h; in data set [3] (setting [5]) it was 8.5 h. Besides, the half-life was 6.8 h in data set [3] (setting [6]) and approximately 6.8 h in data set [3] (setting [7]). Also, in the data set on SHP77, the “emerging resistance: ratio of IC50 to IC50 of parental generation” value is “little to no emerging resistance”.
